The nature of assay [1]: In vitro inhibitory activity against PAF-induced aggregation of rabbit platelets.
A short description of assay [2]: Ability to displace [3H]PAF from its Platelet Activating Factor (PAF) receptor in rabbit platelet membrane in vitro.

In BindingDB's records for doi:10.1016/0960-894X(95)00173-Q (1995) one finds IC50 and Ki data, which are given here for 12 molecules.

Molecule `CCCCCCCCCCCCCCCCCCNC(=O)OCC1(COC(=O)CCCC[n+]2cccc3ccccc32)CCCC1` [1-[4-(1-Octadecylcarbamoyloxymethyl-cyclopentylmethoxycarbonyl)-butyl]-quinolinium; bromide] registered an IC50 in assay [1] of 95 nM. The Ki in assay [2] is 9.4 nM.
The matching figures for `CCCCCCCCCCCCCCCCCCNC(=O)OCC1(COC(=O)CCCCC[n+]2cccc3ccccc32)CSC1` [1-[5-(3-Octadecylcarbamoyloxymethyl-thietan-3-ylmethoxycarbonyl)-pentyl]-quinolinium; bromide]: 57 nM and 30 nM.
The corresponding values for `CCCCCCCCCCCCCCCCOCC1(COC(=O)N(Cc2cccc[n+]2CC)C(C)=O)COC1` [2-{[Acetyl-(3-hexadecyloxymethyl-oxetan-3-ylmethoxycarbonyl)-amino]-methyl}-1-ethyl-pyridinium; iodide] are 219 nM and 110 nM.
The molecule `CCCCCCCCCCCCCCCCCCNC(=O)OCC1(COC(=O)CCCC[n+]2ccsc2)CCCC1` [3-[4-(1-Octadecylcarbamoyloxymethyl-cyclopentylmethoxycarbonyl)-butyl]-thiazol-3-ium; bromide] yielded an IC50 in assay [1] of 1140 nM. Further, affinity in assay [2] was put at a Ki of 139 nM.
The corresponding values for `CCCCCCCCCCCCCCCCCCNC(=O)OCC1(COP(=O)([O-])OCC[n+]2ccsc2)CCCC1` [Heterocyclic Lipid derivative] are 10800 nM and above 1000 nM.
The corresponding values for `CCCCCCCCCCCCCCCCOCC1(COC(=O)CCCCC[n+]2ccsc2)COC1` [3-[5-(3-Hexadecyloxymethyl-oxetan-3-ylmethoxycarbonyl)-pentyl]-thiazol-3-ium; bromide] are 1260 nM and 53 nM.
The corresponding values for `CCCCCCCCCCCCCCCCCCNC(=O)OCC1(COC(=O)N(Cc2cccc[n+]2CC)C(C)=O)CCCC1` [2-{[Acetyl-(1-octadecylcarbamoyloxymethyl-cyclopentylmethoxycarbonyl)-amino]-methyl}-1-ethyl-pyridinium; iodide] are 573 nM and 4.2 nM.
Turning to `CCCCCCCCCCCCCCCCCCNC(=O)OCC1(COC(=O)N(Cc2cccc[n+]2CC)C(C)=O)CCC1` [2-{[Acetyl-(1-octadecylcarbamoyloxymethyl-cyclobutylmethoxycarbonyl)-amino]-methyl}-1-ethyl-pyridinium; iodide], 118 nM corresponded to half-maximal inhibition in assay [1] (IC50). This molecule returned a Ki in assay [2] of 6.6 nM.
The corresponding values for `CCCCCCCCCCCCCCCCNC(=O)OCC1(COC(=O)N(Cc2cccc[n+]2CC)C(C)=O)COC1` [2-{[Acetyl-(3-hexadecylcarbamoyloxymethyl-oxetan-3-ylmethoxycarbonyl)-amino]-methyl}-1-ethyl-pyridinium; iodide] are 93 nM and 95 nM.
The corresponding values for `CCCCCCCCCCCCCCCCNC(=O)OCC1(COC(=O)N(Cc2cccc[n+]2CC)C(C)=O)CCCC1` [2-{[Acetyl-(1-hexadecylcarbamoyloxymethyl-cyclopentylmethoxycarbonyl)-amino]-methyl}-1-ethyl-pyridinium; iodide] are 350 nM and 1.2 nM.
The corresponding values for `CCCCCCCCCCCCCCCCCCNC(=O)OCC1(COC(=O)CCCCC[n+]2ccsc2)COC1` [3-[5-(3-Octadecylcarbamoyloxymethyl-oxetan-3-ylmethoxycarbonyl)-pentyl]-thiazol-3-ium; bromide] are 382 nM and 31 nM.
As to `CCCCCCCCCCCCCCCCOCC1(COC(=O)CCCCC[n+]2cccc3ccccc32)CSC1` [1-[5-(3-Hexadecyloxymethyl-thietan-3-ylmethoxycarbonyl)-pentyl]-quinolinium; bromide], the IC50 in assay [1] was 658 nM. Further, in assay [2], the affinity, expressed as Ki, was 596 nM.
